The assay has as its system recombinant NL-Rluc virus. As to the kind of experiment: Inhibition of HIV replication (NL-RLuc luciferase reporter virus, MT-2 cells). Format: cell-based. (In general: In a reporter assay the amount or activity of a reporter protein is the signal.)
[1] abbreviates: Human immunodeficiency virus 1, MT2, 120 h, read-out: Activity.
Where [2] appears, read: Human immunodeficiency virus 1, MT2, 120 h, read-out: EC50 μM.

Where two headings read alike, the source gives them in different places. Where only a bound is given, the exact number is not on record here.

The results in this text go back to patent US8791108B2, “Inhibitors of human immunodeficiency virus replication” (priority 2011, dated 2014).

For `Cc1nc2cc(C(=O)NCCc3ccccc3Cl)nn2c(-c2cc(F)c3c(c2C)CCCO3)c1[C@H](OC(C)(C)C)C(=O)O` [Example 111, (2S)-2-(tert-butoxy)-2-(2-((2-chlorophenethyl)carbamoyl)-7-(8-fluoro-5-methylchroman-6-yl)-5-methylpyrazolo[1,5-a]pyrimidin-6-yl)acetic acid], under setting [1], the EC50 was < 0.1 µM.
On to `CCc1cc(CNC(=O)c2cc3nc(C)c([C@H](OC(C)(C)C)C(=O)O)c(-c4cc(F)c5c(c4C)CCCO5)n3n2)ccc1F` [Example 24, (2S)-2-(tert-butoxy)-2-(2-((3-ethyl-4-fluorobenzyl)carbamoyl)-7-(8-fluoro-5-methylchroman-6-yl)-5-methylpyrazolo[1,5-a]pyrimidin-6-yl)acetic acid], for which the EC50 under setting [1] is < 0.1 µM.
On the same count and under the same terms, in the case of `Cc1nc2cc(C(=O)NCCCn3ccnc3)nn2c(-c2cc(F)c3c(c2C)CCCO3)c1[C@H](OC(C)(C)C)C(=O)O` [Example 51] it was > 1 µM.
On to `Cc1nc2cc(C(=O)NCCc3nc4ccccc4s3)nn2c(-c2cc(F)c3c(c2C)CCCO3)c1[C@H](OC(C)(C)C)C(=O)O` [Example 119, (2S)-2-(2-((2-(benzo[d]thiazol-2-yl)ethyl)carbamoyl)-7-(8-fluoro-5-methylchroman-6-yl)-5-methylpyrazolo[1,5-a]pyrimidin-6-yl)-2-(tert-butoxy)acetic acid], for which, under setting [1], the EC50 was < 0.1 µM.
On to `Cc1nccc(-c2cccc(NC(=O)c3cc4nc(C)c([C@H](OC(C)(C)C)C(=O)O)c(-c5cc(F)c6c(c5C)CCCO6)n4n3)c2)n1` [Example 85], for which the EC50 under setting [1] is < 0.1 µM and the EC50 under setting [2] was 0.016 µM.
Regarding `Cc1nc2cc(C(=O)NCCCc3ccccc3)nn2c(-c2cc(F)c3c(c2C)CCCO3)c1[C@H](OC(C)(C)C)C(=O)O` [Example 50], the EC50 under setting [1] is < 0.1 µM.
Same read-out and setting: in the case of `COc1cc(F)ccc1CNC(=O)c1cc2nc(C)c([C@H](OC(C)(C)C)C(=O)O)c(-c3cc(F)c4c(c3C)CCCO4)n2n1` [Example 29, (2S)-2-(tert-butoxy)-2-(2-((4-fluoro-2-methoxybenzyl)carbamoyl)-7-(8-fluoro-5-methylchroman-6-yl)-5-methylpyrazolo[1,5-a]pyrimidin-6-yl)acetic acid] it was < 0.1 µM.
Same read-out and setting: in the case of `Cc1cc(CNC(=O)c2cc3nc(C)c([C@H](OC(C)(C)C)C(=O)O)c(/C=C/CC(C)C)n3n2)ccc1F` [Example 149, (S,E)-2-(tert-Butoxy)-2-(2-((4-fluoro-3-methylbenzyl)carbamoyl)-5-methyl-7-(4-methylpent-1-en-1-yl)pyrazolo[1,5-a]pyrimidin-6-yl)acetic acid] it was > 1 µM.
In the case of `Cc1nc2cc(C(=O)NCC34CC5C[C@H](C3)C(O)[C@H](C5)C4)nn2c(-c2cc(F)c3c(c2C)CCCO3)c1[C@H](OC(C)(C)C)C(=O)O` (stereo partly drawn) [Example 135, (2S)-2-(tert-butoxy)-2-(7-(8-fluoro-5-methylchroman-6-yl)-2-((((1R,3R,4S,5R,7S)-4-hydroxyadamantan-1-yl)methyl)carbamoyl)-5-methylpyrazolo[1,5-a]pyrimidin-6-yl)acetic acid], the EC50 (NL-RLuc virus in MT-2 cells, 5 days of incubation, luciferase readout, serum condition not given, read-out: Activity) lay within 0.1 to 1 µM.
With `Cc1nc2cc(C(=O)N(C)CCCn3ccnc3)nn2c(-c2cc(F)c3c(c2C)CCCO3)c1[C@H](OC(C)(C)C)C(=O)O` [Example 37, (2S)-2-(2-((3-(1H-imidazol-1-yl)propyl)(methyl)carbamoyl)-7-(8-fluoro-5-methylchroman-6-yl)-5-methylpyrazolo[1,5-a]pyrimidin-6-yl)-2-(tert-butoxy)acetic acid], the EC50 reads like this: under setting [1], > 1 µM; under setting [2], 20 µM.
With `Cc1nc2cc(C(=O)NCc3ccc(Cl)cc3Cl)nn2c(-c2cc(F)c3c(c2C)CCCO3)c1[C@H](OC(C)(C)C)C(=O)O` [Example 108, (2S)-2-(tert-butoxy)-2-(2-((2,4-dichlorobenzyl)carbamoyl)-7-(8-fluoro-5-methylchroman-6-yl)-5-methylpyrazolo[1,5-a]pyrimidin-6-yl)acetic acid], the EC50 was < 0.1 µM under setting [1] and 0.013 µM under setting [2].
`Cc1nc2cc(C(=O)NCc3cccc(N4CCOCC4)c3)nn2c(-c2cc(F)c3c(c2C)CCCO3)c1[C@H](OC(C)(C)C)C(=O)O` [Example 100]: the EC50 under setting [1] fell in the range of 0.1 to 1 µM.
Regarding `Cc1cc(CNC(=O)c2cc3nc(C)c(C(OC(C)(C)C)C(=O)O)c(-c4cc(F)c5c(c4C)CCCO5)n3n2)ccc1F` (stereo in doubt) [Example 3, (2S)-2-(tert-Butoxy)-2-(2-((4-fluoro-3-methylbenzyl)carbamoyl)-7-(8-fluoro-5-methylchroman-6-yl)-5-methylpyrazolo[1,5-a]pyrimidin-6-yl)acetic acid], the EC50 reads like this: under setting [1], < 0.1 µM; under setting [2], 0.032 µM.
With `Cc1nc2cc(C(=O)NCc3ccccc3C(F)(F)F)nn2c(-c2cc(F)c3c(c2C)CCCO3)c1[C@H](OC(C)(C)C)C(=O)O` [Example 125, (2S)-2-(tert-butoxy)-2-(7-(8-fluoro-5-methylchroman-6-yl)-5-methyl-2-((2-(trifluoromethyl)benzyl)carbamoyl)pyrazolo[1,5-a]pyrimidin-6-yl)acetic acid], the EC50 under setting [1] is < 0.1 µM.
`Cc1nc2cc(C(=O)NC3CCN(Cc4ccccc4)C3)nn2c(-c2cc(F)c3c(c2C)CCCO3)c1[C@H](OC(C)(C)C)C(=O)O` (stereo partly drawn) [Example 82, (2S)-2-(2-((1-benzylpyrrolidin-3-yl)carbamoyl)-7-(8-fluoro-5-methylchroman-6-yl)-5-methylpyrazolo[1,5-a]pyrimidin-6-yl)-2-(tert-butoxy)acetic acid]: the EC50 under setting [1] was 0.1 to 1 µM.
Still for that read-out and setting: in the case of `Cc1nc2cc(C(=O)NCc3ccc4c(c3)OCO4)nn2c(-c2cc(F)c3c(c2C)CCCO3)c1[C@H](OC(C)(C)C)C(=O)O` [Example 34, (2S)-2-(2-((benzo[d][1,3]dioxol-5-ylmethyl)carbamoyl)-7-(8-fluoro-5-methylchroman-6-yl)-5-methylpyrazolo[1,5-a]pyrimidin-6-yl)-2-(tert-butoxy)acetic acid] it was < 0.1 µM; in that of `Cc1nc2cc(C(=O)N3CCC(N4CCCCC4)CC3)nn2c(-c2cc(F)c3c(c2C)CCCO3)c1[C@H](OC(C)(C)C)C(=O)O` [Example 95, (2S)-2-(2-([1,4′-bipiperidine]-1′-carbonyl)-7-(8-fluoro-5-methylchroman-6-yl)-5-methylpyrazolo[1,5-a]pyrimidin-6-yl)-2-(tert-butoxy)acetic acid], > 1 µM.
On to `Cc1nc2cc(C(=O)NCCC(C)(C)C)nn2c(-c2cc(F)c3c(c2C)CCCO3)c1[C@H](OC(C)(C)C)C(=O)O` [Example 62, (2S)-2-(tert-butoxy)-2-(2-((3,3-dimethylbutyl)carbamoyl)-7-(8-fluoro-5-methylchroman-6-yl)-5-methylpyrazolo[1,5-a]pyrimidin-6-yl)acetic acid], for which the EC50 reads like this: under setting [1], < 0.1 µM; under setting [2], 0.013 µM.
Turning to `Cc1ccc(CNC(=O)c2cc3nc(C)c([C@H](OC(C)(C)C)C(=O)O)c(-c4cc(F)c5c(c4C)CCCO5)n3n2)cc1` [Example 5, (2S)-2-(tert-butoxy)-2-(7-(8-fluoro-5-methylchroman-6-yl)-5-methyl-2-((4-methylbenzyl)carbamoyl)pyrazolo[1,5-a]pyrimidin-6-yl)acetic acid], under setting [1], the EC50 was < 0.1 µM.
Still for that read-out and setting: for `Cc1nc2cc(C(=O)NCCC34C[C@H]5C[C@@H](C3)C[C@@H](C4)C5)nn2c(-c2cc(F)c3c(c2C)CCCO3)c1[C@H](OC(C)(C)C)C(=O)O` [Example 130] the value was < 0.1 µM.
